According to patent publication US11578055B2, “Triazacyclododecansulfonamide (“TCD”)-based protein secretion inhibitors” (KEZAR LIFE SCIENCES, priority 2018, dated 2023):
Like-named read-outs stand apart in the source and are kept apart here.

Tests used:
[1] = In Vitro Microsome Stability Assay (mouse); type: in vitro ADME
How it was run: (§1)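 Species liver microsomes in potassium phosphate buffer were preincubated at 37 °C for 3–5 min with test compound (added from 0.25 mM DMSO stock), then started with NADPH. Samples at 0 and 30 min were quenched with acetonitrile containing internal standard and analysed by LC-MS/MS; % remaining at 30 min used analyte/IS AUC ratios relative to t=0.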

[2] = system: PD1 signal sequence plus 10 amino acids fused to Gaussia Luciferase (PD1-ss+10aa/Gaussia Luciferase); experiment: Dox Induced PD1-ss-Gluc Assay; type: cell-based; settings: 24 hr, read-out: 24 hr Dox Inducible PD1ssGluc 293FRT/TO: Mean IC50
How it was run: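 Compound dilutions in DMSO/media containing doxycycline were applied to a stable, inducible 293 T-REx line carrying the luciferase fusion, then incubated at 37 °C, 5% CO2. Where stereochemistry is not drawn, values relate to isomer mixtures.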

[3] = system: full length TNFα (amino acids 1-233) fused to Gaussia Luciferase; experiment: Dox Induced TNFα-FL-Gluc Assay; type: cell-based; settings: 24 hr, read-out: 24 hr Dox Inducible TNFaFLGluc 293FRT/TO: Mean IC50
How it was run: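 Compounds diluted in DMSO/medium with doxycycline were incubated at 37° C, 5% CO2 with 293 T-REx cells stably carrying a Tet-regulated TNFα(1-233)-Gaussia luciferase construct. Data for structures drawn without stereochemistry refer to stereoisomer mixtures.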

[4] = In Vitro Microsome Stability Assay (human); type: in vitro ADME
How it was run: as §1

[5] = system: full length IL-2 (amino acids 1-153) fused to Gaussia Luciferase; experiment: Dox Induced IL2-FL-Gluc Assay; type: cell-based; settings: 24 hr, read-out: 24 hr Dox Inducible IL2FLGluc 293FRT/TO: Mean IC50
Excerpt: FIp-In 293 T-REx™ cells were transfected with pcDNA™5/FRT/TO plasmid inserted with cDNA encoding Gaussia Luciferase fused to the 3′ end of cDNA encoding full length IL-2 (amino acids 1-153). Transfected cells were selected for resistance to the selectable markers Hygromycin and Blasticidin to create a stable cell line that contained the IL-2-FL/Gaussia Luciferase cDNA insert whose expression was regulated under the T-REx™ system. The day before assay, cells were trypsinized and plated in 384-well tissue culture plates. The next day, compound dilutions in DMSO/media containing doxycycline were added to the wells and incubated at 37° C., 5% CO2.
For chemical structures that include one or more stereoisomers, but are illustrated without indicating stereochemistry, the assay data refers to a mixture of stereoisomers.

[6] = In Vitro Microsome Stability Assay (monkey); type: in vitro ADME
How it was run: as §1

[7] = In Vitro Microsome Stability Assay (rat); type: in vitro ADME
How it was run: as §1

[8] = system: multiple myeloma cell line NCl-H929; experiment: H929 Cell Viability Assay; type: cell-based, human; settings: Homo sapiens, NCI-H929, 48 h
How it was run: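 Viability was determined by CellTiter-Glo luminescence after a 48 h, 37 °C exposure of NCI-H929 cells to serial compound dilutions in medium containing 10% FBS. Where stereochemistry is not shown, values refer to a mix of stereoisomers.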

[9] = system: multiple myeloma cell line U266B1; experiment: U266 Cell Viability Assay; type: cell-based, human; settings: Homo sapiens, U-266, 48 hr
How it was run: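 Viability was measured by CellTiter-Glo luminescence after 48 h compound exposure at 37° C, 5% CO2. The cells were U266B1 multiple myeloma cells grown in RPMI 1640 plus 10% FBS. Where stereochemistry is not shown, values apply to the stereoisomer mixture.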

[10] = H929, read-out: 48 hr H929 Viability Celltiter-Glo: Mean EC50
[11] = U266, read-out: 48 hr U266 Viability Celltiter-Glo: Mean EC50
[12] = mouse liver microsomes, 30 min w/ NADPH
[13] = human liver microsomes, 30 min w/ NADPH
[14] = monkey liver microsomes, 30 min w/ NADPH
[15] = rat liver microsomes, 30 min w/ NADPH

Compound | Liver Microsome Stability-% Left after 30 min w/ NADPH (%) Mouse ([1]; mouse, 30 min, NADPH) | IC50 ([2]; 293FRT/TO) | IC50 ([3]; 293FRT/TO) | Liver Microsome Stability-% Left after 30 min w/ NADPH (%) Human ([4]; human, 30 min, NADPH) | IC50 ([5]; 293FRT/TO) | Liver Microsome Stability-% Left after 30 min w/ NADPH (%) Monkey ([6]; monkey, 30 min, NADPH) | Liver Microsome Stability-% Left after 30 min w/ NADPH (%) Rat ([7]; rat, 30 min, NADPH) | EC50 [8, 10] | EC50 [9, 11] | Liver Microsome Stability-% Left after 30 min w/ NADPH (%) Mouse [1, 12] | IC50 ([2]; Dox inducible, 293FRT/TO cells) | IC50 ([3]; Dox inducible, 293FRT/TO cells) | Liver Microsome Stability-% Left after 30 min w/ NADPH (%) Human [4, 13] | IC50 ([5]; Dox inducible, 293FRT/TO cells) | Liver Microsome Stability-% Left after 30 min w/ NADPH (%) Monkey [6, 14] | Liver Microsome Stability-% Left after 30 min w/ NADPH (%) Rat [7, 15] | EC50 ([8]; H929, Celltiter-Glo) | EC50 ([9]; U266, Celltiter-Glo)
C=C1CN(S(=O)(=O)c2ccc(N(C)C)cc2)CCCN(CC2CCCCC2)CCCN(S(=O)(=O)N2Cc3ccc(Cl)cc3C2)C1 [A89, 4-({5-[(5-chloro-2,3-dihydro-1H-isoindo1-2-yl)sulfonyl]-9-(cyclohexylmethyl)-3-methylidene-1,5,9-triazacyclododecan-1-yl}sulfonyl)-N,N-dimethylaniline] | 17.1% | 82 nM | 1210 nM | 18.5% | 187 nM | 13.5% | 22.2% | 1750 nM | > 25000 nM | – | – | – | – | – | – | – | – | –
C[C@H]1CN(S(=O)(=O)c2ccc(N(C)C)cc2)CCCN(CC2CCCCC2)CCCN(S(=O)(=O)N2CCN(C(=O)OC(C)(C)C)CC2)C1 [A153, tert-butyl 4-{[(3S)-9-(cyclohexylmethyl)-5-[4-(dimethylamino)benzenesulfonyl]-3-methyl-1,5,9-triazacyclododecan-1-yl]sulfonyl}piperazine-1-carboxylate] | – | – | – | – | – | – | – | – | – | 0.87% | 1290 nM | > 25000 nM | 2.57% | 1260 nM | 1.26% | 6.23% | > 25000 nM | > 25000 nM
C[C@H]1CN(S(=O)(=O)c2ccc(N(C)C)cc2)CCCN(CC2CCCCC2)CCCN(S(=O)(=O)N2CCN(c3ccccc3F)CC2)C1 [A94, 4-{[(3S)-9-(cyclohexylmethyl)-5-{[4-(2-fluorophenyl)piperazin-1-yl]sulfonyl}-3-methyl-1,5,9-triazacyclododecan-1-yl]sulfonyl}-N,N-dimethylaniline] | 45.7% | 36.4 nM | 550 nM | 42.1% | 78.3 nM | 30.3% | 45.5% | 800 nM | > 25000 nM | – | – | – | – | – | – | – | – | –
CC(C)CCN1CCCN(S(=O)(=O)c2ccc(N(C)C)cc2)C[C@H](C)CN(S(=O)(=O)N2CCc3cc(Cl)ccc3C2)CCC1 [A123, 4-{[(3S)-5-[(6-chloro-1,2,3,4-tetrahydroisoquinolin-2-yl)sulfonyl]-3-methyl-9-(3-methylbutyl)-1,5,9-triazacyclododecan-1-yl]sulfonyl}-N,N-dimethylaniline] | – | – | – | – | – | – | – | – | – | 6.13% | 14 nM | 425 nM | 5.02% | 45.9 nM | 3.47% | 7.41% | 835 nM | > 25000 nM
C[C@H]1CCN(S(=O)(=O)N2CCc3cc(Cl)ccc3C2)CCCN(CC2CCCCC2)CCCN1S(=O)(=O)c1ccc(N(C)C)cc1 [A150, 4-{[(2 S)-5-[(6-chloro-1,2,3,4-tetrahydroisoquinolin-2-yl)sulfonyl]-9-(cyclohexylmethyl)-2-methyl-1,5,9-triazacyclododecan-1-yl]sulfonyl}-N,N-dimethylaniline] | – | – | – | – | – | – | – | – | – | 1.38% | 30.3 nM | 468 nM | 4.6% | 41.3 nM | 2.2% | 2.02% | 2000 nM | > 25000 nM

The remaining molecules from weak to strong by IC50 ([2]; Dox inducible, 293FRT/TO cells), led by results:

Liver Microsome Stability-% Left after 30 min w/ NADPH (%) Mouse ([1]; mouse, 30 min, NADPH) | IC50 ([2]; 293FRT/TO) | IC50 ([3]; 293FRT/TO) | Liver Microsome Stability-% Left after 30 min w/ NADPH (%) Human ([4]; human, 30 min, NADPH) | IC50 ([5]; 293FRT/TO) | Liver Microsome Stability-% Left after 30 min w/ NADPH (%) Monkey ([6]; monkey, 30 min, NADPH) | Liver Microsome Stability-% Left after 30 min w/ NADPH (%) Rat ([7]; rat, 30 min, NADPH) | EC50 [8, 10] | EC50 [9, 11] | Liver Microsome Stability-% Left after 30 min w/ NADPH (%) Mouse [1, 12] | IC50 ([2]; Dox inducible, 293FRT/TO cells) | IC50 ([3]; Dox inducible, 293FRT/TO cells) | Liver Microsome Stability-% Left after 30 min w/ NADPH (%) Human [4, 13] | IC50 ([5]; Dox inducible, 293FRT/TO cells) | Liver Microsome Stability-% Left after 30 min w/ NADPH (%) Monkey [6, 14] | Liver Microsome Stability-% Left after 30 min w/ NADPH (%) Rat [7, 15] | EC50 ([8]; H929, Celltiter-Glo) | EC50 ([9]; U266, Celltiter-Glo) | Compound
– | – | – | – | – | – | – | – | – | 75.6% | 92.5 nM | 1830 nM | 81.3% | 207 nM | 80.6% | 82.1% | 3710 nM | > 25000 nM | Cc1cccc(CN2CCCN(S(=O)(=O)c3ccc(N(C)C)cc3)C[C@H](C)CN(S(=O)(=O)N3CCc4cc(Cl)ccc4C3)CCC2)c1 [A156, 4-{[(3S)-5-[(6-chloro-1,2,3,4-tetrahydroisoquinolin-2-yl)sulfonyl]-3-methyl-9-[(3-methylphenyl)methyl]-1,5,9-triazacyclododecan-1-yl]sulfonyl}-N,N-dimethylaniline]
– | – | – | – | – | – | – | – | – | 13.2% | 73.9 nM | 947 nM | 8.84% | 156 nM | 12.5% | 17.1% | 2400 nM | > 25000 nM | COc1cccc2c1CCN(S(=O)(=O)N1CCCN(CC3CCCCC3)CCCN(S(=O)(=O)c3ccc(N(C)C)cc3)C[C@H](C)C1)C2 [A138, 4-{[(3S)-9-(cyclohexylmethyl)-5-[(5-methoxy-1,2,3,4-tetrahydroisoquinolin-2-yl)sulfonyl]-3-methyl-1,5,9-triazacyclododecan-1-yl]sulfonyl}-N,N-dimethylaniline]
– | – | – | – | – | – | – | – | – | 17.1% | 38.7 nM | 984 nM | 23.3% | 122 nM | 27.9% | 22.0% | 1480 nM | > 25000 nM | C[C@H]1CN(S(=O)(=O)c2ccc(N(C)C)cc2)CCCN(CC2CCCCC2)CCCN(S(=O)(=O)N2CCc3c(Cl)cccc3C2)C1 [A181, 4-{[(3S)-5-[(5-chloro-1,2,3,4-tetrahydroisoquinolin-2-yl)sulfonyl]-9-(cyclohexylmethyl)-3-methyl-1,5,9-triazacyclododecan-1-yl]sulfonyl}-N,N-dimethylaniline]
– | – | – | – | – | – | – | – | – | 86.6% | 33.4 nM | 477 nM | 62.3% | 90.5 nM | 70% | 101.9% | 558 nM | > 25000 nM | Cc1cc(F)ccc1N1CCN(S(=O)(=O)N2CCCN(CC3CCCCC3)CCCN(S(=O)(=O)c3ccc(N(C)C)cc3)C[C@H](C)C2)CC1 [A102, 4-{[(3S)-9-(cyclohexylmethyl)-5-{[4-(4-fluoro-2-methylphenyl)piperazin-1-yl]sulfonyl}-3-methyl-1,5,9-triazacyclododecan-1-yl]sulfonyl}-N,N-dimethylaniline]
– | – | – | – | – | – | – | – | – | 0.62% | 29.6 nM | 546 nM | 1.06% | 68.3 nM | 0.88% | 2.05% | 421 nM | > 25000 nM | C[C@H]1CN(S(=O)(=O)c2ccc(N(C)C)cc2)CCCN(CC2CCC2)CCCN(S(=O)(=O)N2CCc3cc(Cl)ccc3C2)C1 [A108, 4-{[(3S)-5-[(6-chloro-1,2,3,4-tetrahydroisoquinolin-2-yl)sulfonyl]-9-(cyclobutylmethyl)-3-methyl-1,5,9-triazacyclododecan-1-yl]sulfonyl}-N,N-dimethylaniline]
